These results are taken from publication PMC6529709 (Heliyon, 2019).

In general, IC50 refers to the midpoint of a concentration-inhibition curve. Read a high IC50 as weaker potency.

For this assay, the target named is urease (from jack bean) (Canavalia ensiformis, UniProt P07374). In words: indophenol. The format is biochemical.
urease (from jack bean), sequence (P07374 whole entry, looked up): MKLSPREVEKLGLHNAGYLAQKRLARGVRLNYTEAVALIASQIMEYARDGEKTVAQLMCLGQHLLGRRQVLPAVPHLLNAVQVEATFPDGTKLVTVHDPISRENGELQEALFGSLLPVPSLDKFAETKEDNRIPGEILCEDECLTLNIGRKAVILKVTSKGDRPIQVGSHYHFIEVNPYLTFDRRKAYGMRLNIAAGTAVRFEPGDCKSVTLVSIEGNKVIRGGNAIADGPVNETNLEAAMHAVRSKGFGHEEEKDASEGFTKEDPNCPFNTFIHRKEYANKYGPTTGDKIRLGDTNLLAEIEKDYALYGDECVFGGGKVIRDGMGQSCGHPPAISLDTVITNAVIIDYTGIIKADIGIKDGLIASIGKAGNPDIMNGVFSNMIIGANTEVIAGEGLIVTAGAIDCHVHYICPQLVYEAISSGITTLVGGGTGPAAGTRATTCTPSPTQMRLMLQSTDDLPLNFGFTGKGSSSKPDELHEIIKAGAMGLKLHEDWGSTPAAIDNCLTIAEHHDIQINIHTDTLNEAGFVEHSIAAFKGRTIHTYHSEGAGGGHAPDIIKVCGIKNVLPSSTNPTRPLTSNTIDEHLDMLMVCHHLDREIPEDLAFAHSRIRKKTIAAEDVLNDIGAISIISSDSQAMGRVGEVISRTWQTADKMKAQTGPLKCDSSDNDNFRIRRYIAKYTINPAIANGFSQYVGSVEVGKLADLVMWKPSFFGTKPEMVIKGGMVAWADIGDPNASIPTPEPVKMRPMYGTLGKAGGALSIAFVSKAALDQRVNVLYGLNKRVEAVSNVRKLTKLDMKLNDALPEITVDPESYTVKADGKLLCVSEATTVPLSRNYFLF
Take `NC(N)=S` [Thiourea, reference compound]: half-maximal inhibition (IC50) was put at 65.3 µM.

Compound `COc1ccc(/C=N/c2cc(Cl)cc(Cl)c2)cc1` [ASB2] had an IC50 of 184 µM.

With `COc1ccc(/C=N/N=C/c2ccc(OC)cc2)cc1` [ASB1], the IC50 was 38.4 µM.
